Data from patent US20040106124A1, “Methods for improving the treatment of major depression by genotyping for the gene for apolipoproteine e4 and for improving the terapeutic response of humans having major depression and carrying the gene for apolipoprotein e4” (priority 2001, published 2004).

Assays:
[1] = tested on: patients 65 years of age and older with major depression; test: Hamilton Depression Rating Scale (HDRS-17, HDRS-21) in 8-week double-blind comparison of paroxetine and mirtazapine; assay type: in vivo, human; conditions: for HDRS-21 scores, ε4 carriers compared with those without an ε4 allele: interaction p=0.033; for HDRS-17 scores, ε4 carriers compared with those without an ε4 allele: interaction p=0.036; for HDRS-21 50% responders: patients carrying an ε4 allele; for rate and onset of antidepressant response, mirtazapine compared with paroxetine: early weeks of treatment, summary of the example
Excerpt: Hamilton Depression Rating Scale (HDRS; 17 and 21 item versions of a structured interview) (Hamilton, M., J. Neurol. Neurosurg. Psychiatr. 23:56-62, 1960; Hamilton, M., Br. J. Soc. Clin. Psychol. 6:278-296,1967). […] In other words, a lower rating in the HDRS scale signifies less depression. In contrast, HDRS remitters, which are those patients showing the least depression, are defined as subjects who have an HDRS-17 score of less than 7 at a post-baseline visit.
(§1) J. Psychiatr. 154:603-608, 1997.
(§2) All statistical analyses were performed using the SAS software package (available from SAS Institute). For clinical measures of depression (HDRS-21, HDRS-17, GDS, and CGI), analyses of covariance were performed with baseline values as the covariate, and apoE genotype (ε4 allele carrier vs. non-carder) and medication (mirtazapine, paroxetine) as the predictors. For remitter and responder analyses of clinical measures of depression, Cochran-Mantel-Haenszel statistics were used. For comparison of medication and genotype groups on baseline demographic measures, two-way analyses of variance were used.

[2] = tested on: patients 65 years of age and older with major depression; test: Geriatric Depression Scale (GDS) in 8-week double-blind comparison; assay type: in vivo, human; conditions: for GDS scores, ε4 carriers compared with noncarriers / 50% reduction in GDS score, ε4 carriers compared with those without an ε4 allele / GDS scores, patients with an ε4 allele compared with those without: day 14; for GDS scores, ε4 carriers compared with noncarriers: Caucasian patients; for 50% reduction in GDS score, ε4 carriers compared with those without an ε4 allele / GDS scores, patients with an ε4 allele compared with those without / 50% reduction in GDS score, ε4 carriers compared with noncarriers: full cohort; for number of patients showing a 50% reduction in GDS, ε4 carriers compared with noncarriers / 50% reduction in GDS score, ε4 carriers compared with noncarriers: day 28; for number of patients showing a 50% reduction in GDS, ε4 carriers compared with noncarriers: Caucasian subjects
Method: Geriatric Depression Scale (GDS) (Yesavage, J. A. et al., J. Psychiatr. Res. 17:37-49, 1983), a self-rating scale developed specifically for rating depression in the elderly. In the GDS, a lower rating signifies less depression. GDS 50% responders are defined as subjects with a decrease on a post-baseline assessment of at least 50% as compared to baseline.
as §1, §2

[3] = tested on: patients 65 years of age and older with major depression; test: Clinical Global Impression Scale (CGI) in 8-week double-blind comparison; assay type: in vivo, human; conditions: day 14; for CGI scores, ε4 carriers compared with those without an ε4 allele: interaction p=0.029
Excerpt: Clinical Global Impression Scale (CGI) (Guy, W., ECDEU Assessment Manual for Psychopharmacology, DHEW Publication No. (ADM) 76-338, rev. 1976). The CGI scale is a global 7-point rating of the severity of the illness taking into account the preceding week (CGI-Severity) and a global 7-point rating of the clinical status of the subject since baseline (CGI-Change). A responder is defined as being “Much Improved” or “Very Much Improved”—having a CGI score of at least 2 according to CGI-Change. Thus, a higher CGI-Severity score corresponds to more severe depression whereas a higher CGI-Change score corresponds to lessened depression, or an improvement in alleviating the symptoms of depression.
as §1, §2

[4] = tested on: patients 65 years of age and older with major depression; test: Mini Mental State Examination (MMSE), cognition, in 8-week double-blind comparison; assay type: in vivo, human; conditions: for mean MMSE score, ε4 carriers compared with noncarriers: week 8, full cohort, analysis of covariance
Method: (§3) A multi-center, randomized, double-blind, 8-week comparison of paroxetine and mirtazapine was performed for 246 nondemented, cognitively intact patients 65 years of age and older with major depression. All patients were genotyped at the apoE locus as discussed further below.
(§4) After an initial evaluation period, the mirtazapine patients started with a 15 mg dose per day. After two weeks of treatment (Day 14), patients' dosages were raised to 30 mg per day. […] Subjects who rate “Much Improved” or “Very Much Improved” on the CGI Scale I continued on the same dose they were receiving during the previous week.
(§5) For paroxetine, the dosing system was the same, except that the starting dosage was 20 mg per day, raised to 30 mg per day, and to a maximum of 40 mg per day.
This test represents a brief standardized method to grade cognitive mental status. The test assesses orientation, attention, immediate and short-term recall, language, and the ability to follow verbal and written commands. The lower the score, the lower the cognitive mental status.
To screen patients for the gene, genomic DNA was extracted from EDTA-treated whole blood using the Puregene DNA extraction kit (available from Gentra Systems). […] J. Psychiatr. 154:603-608, 1997. Genotypes were determined by two observers blind as to the clinical or neuropathological diagnosis.
All statistical analyses were performed using the SAS software package (available from SAS Institute). […] For remitter and responder analyses of clinical measures of depression, Cochran-Mantel-Haenszel statistics were used. For comparison of medication and genotype groups on baseline demographic measures, two-way analyses of variance were used.

[5] = tested on: patients 65 years of age and older with major depression; test: Discontinuation due to adverse events in 8-week double-blind comparison; assay type: in vivo, human
Method: as §2

[6] = Plasma drug concentrations in 8-week double-blind comparison
Method: as §3, §4, §5

[7] = day 14, patients with an ε4 allele, full cohort
[8] = day 14, Caucasian patients, p=0.006

mean MMSE score, ε4 carriers compared with noncarriers [4] | Compound | HDRS scores, improvement of ε4 carriers compared with noncarriers ([1]; day 14, Caucasian patients) | HDRS-21 scores, ε4 carriers compared with those without an ε4 allele ([1]; day 14, full cohort) | HDRS-17 scores, ε4 carriers compared with those without an ε4 allele ([1]; day 14, full cohort) | HDRS-21 50% responders ([1]; day 14, full cohort) | HDRS-17 remitters [1, 7] | rate and onset of antidepressant response, mirtazapine compared with paroxetine [1] | GDS scores, ε4 carriers compared with noncarriers [2] | 50% reduction in GDS score, ε4 carriers compared with those without an ε4 allele [2] | GDS scores, patients with an ε4 allele compared with those without [2] | number of patients showing a 50% reduction in GDS, ε4 carriers compared with noncarriers [2] | 50% reduction in GDS score, ε4 carriers compared with noncarriers [2] | CGI scores, ε4 carriers compared with noncarriers ([3]; Caucasian patients) | CGI scores, ε4 carriers compared with those without an ε4 allele ([3]; full cohort) | also measured
significantly lower | Fc1ccc([C@@H]2CCNC[C@H]2COc2ccc3c(c2)OCO3)cc1 [paroxetine] | less improvement | higher scores | higher scores | none | none | slower onset of anti-depressant action | no effect | no difference | no significant difference | no significant effect | no effect | no differences | higher scores | HDRS-17 50% responders (50% decrease in HDRS-17 score over baseline) [1, 7]: none; MMSE score, subjects with an ε4 allele compared with those without ([4]; Caucasian subjects, trend, p=0.05): lower MMSE score; number of patients who discontinued due to adverse events, ε4 carriers compared with noncarriers ([5]; Caucasian subjects): no significant differences; number of patients who discontinued due to adverse events, ε4 carriers compared with noncarriers ([5]; full cohort): no significant differences; plasma drug concentrations, ε4 carriers compared with non-ε4 carriers ([6]; Caucasian subjects): no differences; plasma drug concentrations, ε4 carriers compared with non-ε4 carriers ([6]; full cohort): no differences
no effect | CN1CCN2c3ncccc3Cc3ccccc3C2C1 (stereo not shown) [mirtazapine, 1,2,3,4,10,14b-hexahydro-2-methylpyrazino [2,1-a]pyrido[2,3-c]benzazepine] | greater improvement | significantly lower scores | significantly lower scores | 48% | 28% | higher rate of antidepressant response | significantly lower | significantly more likely | large decrease | significantly more | significantly more | significantly better | significantly lower scores | improvement in HDRS-17 scores, mirtazapine-treated compared with paroxetine-treated patients ([1]; day 7, full cohort): significantly greater improvement; mean HDRS-17 scores, mirtazapine compared with paroxetine [1, 8]: significantly lower; mean HDRS-21 scores, mirtazapine compared with paroxetine [1, 8]: significantly lower; percentage of ε4 carriers responding to medication treatment (50% reduction in HDRS-17, HDRS-21, HDRS-17 remission, 50% reduction in GDS), mirtazapine compared with paroxetine ([1]; day 14, Caucasian subjects): greater; improvement in HDRS-17 scores, mirtazapine-treated compared with paroxetine-treated patients ([1]; day 14, full cohort): Significantly greater improvement; improvement in HDRS-21 scores, mirtazapine-treated compared with paroxetine-treated patients ([1]; day 14, full cohort): Significantly greater improvement; HDRS-17 50% responders, ε4 carriers compared with those without an ε4 allele ([1]; day 14, full cohort, p=0.049): significantly more; HDRS-17 remitters ([1]; day 14, patients without an ε4 allele, full cohort): 7.1%; CGI scores, mirtazapine treated compared with paroxetine treated subjects ([3]; Caucasian patients, p=0.037): significantly better; improvement in CGI scores, mirtazapine-treated compared with paroxetine-treated patients ([3]; full cohort): Significantly greater improvement; number of patients who discontinued due to adverse events, ε4 carriers compared with noncarriers ([5]; in vivo): no significant differences; plasma drug concentrations, ε4 carriers compared with non-ε4 carriers ([6]; in vivo): no differences
